# Measurements taken from PMC3340143 (The Journal of Biological Chemistry, 2012).
# Target: T1, CymA (Shewanella oneidensis, UniProt Q8E8S0)
# T1 sequence (Q8E8S0 1-187): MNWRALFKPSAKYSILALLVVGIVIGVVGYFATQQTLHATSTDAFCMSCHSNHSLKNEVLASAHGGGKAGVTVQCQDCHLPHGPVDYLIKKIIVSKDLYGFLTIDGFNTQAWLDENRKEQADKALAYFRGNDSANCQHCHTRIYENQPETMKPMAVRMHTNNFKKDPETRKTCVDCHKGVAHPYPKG
# Experiment: protein-film cyclic voltammetry, inhibition of menaquinone-7 reduction
# Type: biochemical
smiles,measurement,value
CCCCCCCc1cc(O)c2ccccc2[n+]1[O-] [HQNO],Ki,800 nM
